According to patent publication US7598397B2, “Sulfonamide peri-substituted bicyclics for occlusive artery disease” (deCODE genetics ehf, priority 2004, dated 2009):

Molecular target: T1, prostanoid EP3 receptors (Homo sapiens, UniProt P43115)
T1 sequence (P43115 1-390): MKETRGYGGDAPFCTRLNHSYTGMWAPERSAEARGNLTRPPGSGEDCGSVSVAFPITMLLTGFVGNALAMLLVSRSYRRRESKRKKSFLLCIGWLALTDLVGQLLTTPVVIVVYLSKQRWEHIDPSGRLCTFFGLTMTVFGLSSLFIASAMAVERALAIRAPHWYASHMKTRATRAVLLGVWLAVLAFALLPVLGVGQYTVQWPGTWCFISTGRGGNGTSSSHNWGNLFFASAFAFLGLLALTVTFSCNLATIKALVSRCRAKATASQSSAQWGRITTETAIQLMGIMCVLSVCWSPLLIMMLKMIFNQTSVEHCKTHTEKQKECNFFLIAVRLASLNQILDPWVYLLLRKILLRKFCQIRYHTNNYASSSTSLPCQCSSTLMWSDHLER
Experiment: binding on prostanoid EP3 receptors (method of Abramovitz et al.)
Settings: read-out: Activity (EP3 receptor binding, IC50 class)
Experimental: The compounds of the invention were assayed for their binding on prostanoid EP3 receptors according to the method of Abramovitz et al. [Bioch. Biophys.

Row | Compound | IC50 [µM]
1 | Cc1cn(Cc2ccc(Cl)cc2Cl)c2c(C=CC(=O)NS(=O)(=O)c3cc(Cl)c(Cl)s3)cccc12 [Compound P079] | < 1
2 | O=C(C=Cc1cccc2c1N(Cc1ccc3ccccc3c1)C(=O)C21OCCO1)NS(=O)(=O)c1cccs1 [Compound P083] | < 1
3 | Cc1cn(Cc2ccccc2)c2c(/C=C/C(=O)NS(=O)(=O)c3cccs3)cccc12 [Compound P084] | < 1
4 | CC(=O)c1cn(Cc2ccc(Cl)cc2Cl)c2c(C=CC(=O)NS(=O)(=O)c3cccs3)cccc12 [Compound P085] | < 1
5 | Cc1cn(Cc2ccccc2Cl)c2c(/C=C/C(=O)NS(=O)(=O)c3cccs3)cccc12 [Compound P086] | < 1
6 | Cc1cn(Cc2cc(F)cc(F)c2)c2c(/C=C/C(=O)NS(=O)(=O)c3cccs3)cccc12 [Compound P088] | < 1
7 | Cc1cn(Cc2cc3c(cc2Cl)OCO3)c2c(/C=C/C(=O)NS(=O)(=O)c3cccs3)cccc12 [Compound P089] | < 1
8 | Cc1cn(Cc2ccc(Cl)cc2Cl)c2c(C=CC(=O)NS(=O)(=O)c3ccccc3)cccc12 [Compound P090] | < 1
9 | CC(C)c1cn(Cc2ccc(Cl)cc2Cl)c2c(CCC(=O)NS(=O)(=O)c3cccs3)cccc12 [Compound P091] | 1 to 10
10 | CC(C)C1C(=O)N(Cc2ccc(Cl)cc2Cl)c2c(CCC(=O)NS(=O)(=O)c3cccs3)cccc21 (stereo not shown) [Compound P093] | 1 to 10
11 | O=C(C=Cc1cccc2c1N(Cc1ccc3ccccc3c1)C(=O)C2=O)NS(=O)(=O)c1cccs1 [Compound P096] | < 1
12 | O=C(CCc1cccc2c1N(Cc1ccc3ccccc3c1)C(=O)C21OCCO1)NS(=O)(=O)c1cccs1 [Compound P097] | < 1
13 | Cc1cn(Cc2ccc3ccccc3n2)c2c(/C=C/C(=O)NS(=O)(=O)c3cccs3)cccc12 [Compound P099] | < 1
14 | Cc1cn(Cc2ccc3c(c2)OCO3)c2c(/C=C/C(=O)NS(=O)(=O)c3cccs3)cccc12 [Compound P101] | < 1
15 | Cc1cn(Cc2cc(F)cc3c2OCOC3)c2c(/C=C/C(=O)NS(=O)(=O)c3cccs3)cccc12 [Compound P102] | < 1
16 | Cc1cn(Cc2ccc(F)c(F)c2)c2c(/C=C/C(=O)NS(=O)(=O)c3cccs3)cccc12 [Compound P103] | < 1
17 | O=C(C=Cc1cccc2c1N(Cc1ccc3ccccc3c1)C(=O)C2(O)C(F)(F)F)NS(=O)(=O)c1cccs1 (stereo not shown) [Compound P104] | < 1
18 | CC1C(=O)N(Cc2ccc(Cl)cc2Cl)c2c(C=CC(=O)NS(=O)(=O)c3cc(Cl)c(Cl)s3)cccc21 (stereo not shown) [Compound P107] | < 1
19 | CC1(Br)C(=O)N(Cc2ccc3ccccc3c2)c2c(C=CC(=O)NS(=O)(=O)c3cccs3)cccc21 (stereo not shown) [Compound P110] | < 1
20 | CC1(O)C(=O)N(Cc2ccc3ccccc3c2)c2c(C=CC(=O)NS(=O)(=O)c3cccs3)cccc21 (stereo not shown) [Compound P111] | < 1
21 | CC1C(=O)N(Cc2ccc3ccccc3c2)c2c(C=CC(=O)NS(=O)(=O)c3cc(Cl)c(Cl)s3)cccc21 (stereo not shown) [Compound P112] | < 1
22 | O=C(C=Cc1cccc2c1N(Cc1ccc(Cl)cc1Cl)C(=O)C2=O)NS(=O)(=O)c1cc(Cl)c(Cl)s1 [Compound P113] | < 1

Row | Compound | IC50 [µM]
23 | O=C(C=Cc1cccc2c1N(Cc1ccc3ccccc3c1)C(=O)C21OCCO1)NS(=O)(=O)c1cc(Cl)c(Cl)s1 [Compound P114] | < 1
24 | O=C(C=Cc1cccc2c1N(Cc1ccc3ccccc3c1)C(=O)C2=O)NS(=O)(=O)c1cc(Cl)c(Cl)s1 [Compound P115] | < 1
25 | Cc1cn(Cc2ccc(Cl)c(Cl)c2)c2c(/C=C/C(=O)NS(=O)(=O)c3cc(Cl)c(Cl)s3)cccc12 [Compound P118] | < 1
26 | Cc1cn(Cc2cccc(C(F)(F)F)c2)c2c(/C=C/C(=O)NS(=O)(=O)c3cc(Cl)c(Cl)s3)cccc12 [Compound P119] | < 1
27 | Cc1cn(Cc2ccc(F)cc2)c2c(/C=C/C(=O)NS(=O)(=O)c3cc(Cl)c(Cl)s3)cccc12 [Compound P120] | < 1
28 | Cc1cn(Cc2ccccc2)c2c(/C=C/C(=O)NS(=O)(=O)c3cc(Cl)c(Cl)s3)cccc12 [Compound P122] | < 1
29 | Cc1cn(Cc2ccccc2Cl)c2c(/C=C/C(=O)NS(=O)(=O)c3cc(Cl)c(Cl)s3)cccc12 [Compound P123] | < 1
30 | Cc1cn(Cc2c(Cl)cccc2Cl)c2c(/C=C/C(=O)NS(=O)(=O)c3cc(Cl)c(Cl)s3)cccc12 [Compound P124] | < 1
31 | Cc1cn(Cc2ccccc2-c2ccccc2)c2c(/C=C/C(=O)NS(=O)(=O)c3cc(Cl)c(Cl)s3)cccc12 [Compound P125] | < 1
32 | O=C(C=Cc1cccc2c1N(Cc1ccc(Cl)cc1Cl)C(=O)C2)NS(=O)(=O)c1cc(Cl)c(Cl)s1 [Compound P127] | < 1
33 | CC(=O)CC1(O)C(=O)N(Cc2ccc(Cl)cc2Cl)c2c(C=CC(=O)NS(=O)(=O)c3cc(Cl)c(Cl)s3)cccc21 (stereo not shown) [Compound P128] | < 1
34 | O=C(C=Cc1cccc2ccn(Cc3ccc(Cl)cc3Cl)c12)NS(=O)(=O)c1cc(Cl)c(Cl)s1 [Compound P129] | < 1
35 | O=C(C=Cc1cccc2c1N(Cc1ccc(Cl)cc1Cl)C(=O)C2O)NS(=O)(=O)c1cc(Cl)c(Cl)s1 (stereo not shown) [Compound P130] | < 1
36 | CC1(C)C(=O)N(Cc2ccc(Cl)cc2Cl)c2c(C=CC(=O)NS(=O)(=O)c3cc(Cl)c(Cl)s3)cccc21 [Compound P131] | < 1
37 | CC1(O)C(=O)N(Cc2ccc(Cl)cc2Cl)c2c(C=CC(=O)NS(=O)(=O)c3cc(Cl)c(Cl)s3)cccc21 (stereo not shown) [Compound P133] | < 1
38 | O=C(C=Cc1cccc2c1N(Cc1ccc(Cl)cc1Cl)C(=O)C2(O)C[N+](=O)[O-])NS(=O)(=O)c1cc(Cl)c(Cl)s1 (stereo not shown) [Compound P134] | < 1
39 | Cc1cn(Cc2ccc(F)c(F)c2)c2c(/C=C/C(=O)NS(=O)(=O)c3cc(Cl)c(Cl)s3)cccc12 [Compound P135] | < 1
40 | Cc1cn(Cc2cc(F)cc(F)c2)c2c(/C=C/C(=O)NS(=O)(=O)c3cc(Cl)c(Cl)s3)cccc12 [Compound P136] | < 1
41 | Cc1cn(Cc2ccc(Cl)cc2)c2c(/C=C/C(=O)NS(=O)(=O)c3cc(Cl)c(Cl)s3)cccc12 [Compound P137] | < 1
42 | Cc1ccc(C)c(Cn2cc(C)c3cccc(/C=C/C(=O)NS(=O)(=O)c4cc(Cl)c(Cl)s4)c32)c1 [Compound P138] | < 1
43 | Cc1cn(Cc2ccc3c(c2)OCO3)c2c(/C=C/C(=O)NS(=O)(=O)c3cc(Cl)c(Cl)s3)cccc12 [Compound P139] | < 1
44 | Cc1cn(Cc2cccc(OC(F)(F)F)c2)c2c(/C=C/C(=O)NS(=O)(=O)c3cc(Cl)c(Cl)s3)cccc12 [Compound P140] | < 1

Row | Compound | IC50 [µM]
45 | COc1cc(Cn2cc(C)c3cccc(/C=C/C(=O)NS(=O)(=O)c4cc(Cl)c(Cl)s4)c32)cc(OC)c1 [Compound P141] | < 1
46 | COc1cccc(Cn2cc(C)c3cccc(/C=C/C(=O)NS(=O)(=O)c4cc(Cl)c(Cl)s4)c32)c1 [Compound P142] | < 1
47 | Cc1cn(Cc2ccc(OC(F)(F)F)cc2)c2c(/C=C/C(=O)NS(=O)(=O)c3cc(Cl)c(Cl)s3)cccc12 [Compound P143] | < 1
48 | Cc1cn(CC2CCOCC2)c2c(/C=C/C(=O)NS(=O)(=O)c3cc(Cl)c(Cl)s3)cccc12 [Compound P144] | < 1
49 | Cc1cn(Cc2ccc(OC(F)F)cc2)c2c(/C=C/C(=O)NS(=O)(=O)c3cc(Cl)c(Cl)s3)cccc12 [Compound P145] | < 1
50 | Cc1cn(Cc2ccc3ccccc3n2)c2c(/C=C/C(=O)NS(=O)(=O)c3cc(Cl)c(Cl)s3)cccc12 [Compound P146] | < 1
51 | CN1C(=O)C(C)(Cc2ccc3ccccc3c2)c2c(C=CC(=O)NS(=O)(=O)c3cc(Cl)c(Cl)s3)cccc21 (stereo not shown) [Compound P148] | < 1
52 | O=C(C=Cc1cccc2c1C(Cc1ccc3ccccc3c1)C(=O)N2)NS(=O)(=O)c1cc(Cl)c(Cl)s1 (stereo not shown) [Compound P155] | < 1
53 | CN1C(=O)C(C)(Cc2ccc3ccccc3c2)c2c(CCC(=O)NS(=O)(=O)c3cc(Cl)c(Cl)s3)cccc21 (stereo not shown) [Compound P156] | < 1
54 | O=C(COc1cccc2c1C(F)(Cc1ccc3ccccc3c1)C(=O)N2)NS(=O)(=O)c1cc(Cl)c(Cl)s1 (stereo not shown) [Compound P157] | < 1
55 | O=C(COc1cccc2c1C(Cc1ccc3ccccc3c1)C(=O)N2)NS(=O)(=O)c1cc(Cl)c(Cl)s1 (stereo not shown) [Compound P158] | < 1
56 | CC1(F)C(=O)N(Cc2ccc3ccccc3c2)c2c(C=CC(=O)NS(=O)(=O)c3cccs3)cccc21 (stereo not shown) [Compound P160] | < 1
57 | CC1(F)C(=O)N(Cc2ccc3ccccc3c2)c2c(C=CC(=O)NS(=O)(=O)c3cc(Cl)c(Cl)s3)cccc21 (stereo not shown) [Compound P161] | < 1
58 | Cc1ccc(Sc2c[nH]c3cccc(OCC(=O)NS(=O)(=O)c4cc(Cl)c(Cl)s4)c23)c(C)c1 [Compound P165] | < 1
59 | O=C(COc1cccc2[nH]cc(Sc3ccc4ccccc4c3)c12)NS(=O)(=O)c1cccs1 [Compound P166] | < 1
60 | COc1ccc(S(=O)(=O)c2c[nH]c3cccc(OCC(=O)NS(=O)(=O)c4cc(Cl)c(Cl)s4)c23)cc1OC [Compound P170] | < 1
61 | Cc1ccc(S(=O)(=O)c2c[nH]c3cccc(OCC(=O)NS(=O)(=O)c4cc(Cl)c(Cl)s4)c23)c(C)c1 [Compound P172] | < 1
62 | O=C(COc1cccc2[nH]cc(Sc3ccc(Cl)c(Cl)c3)c12)NS(=O)(=O)c1cc(Cl)c(Cl)s1 [Compound P178] | < 1
63 | O=C(C=Cc1cccc2c1N(Cc1ccc3ccccc3c1)C(=O)C2)NS(=O)(=O)c1cc(Cl)c(Cl)s1 [Compound P179] | < 1
64 | O=C(C=Cc1cccc2c1N(Cc1ccc3ccccc3c1)C(=O)C2(F)F)NS(=O)(=O)c1cc(Cl)c(Cl)s1 [Compound P180] | < 1
